Test results as given in ChEMBL document CHEMBL1157539, “Thousands of chemical starting points for antimalarial lead identification” (Nature, 2010).
Several values for one entry are separate records, joined by “and”; a condition that tells them apart may be missing. Identical values can stand only once.

System: Plasmodium falciparum
Assay: GSK_TCMDC: Inhibition of Plasmodium falciparum 3D7 in whole erythrocytes, using parasite LDH activity as an index of growth.
Type: functional, organism-based
Settings: not given

Compound | XC50
O=C(/C=C/c1ccc(Cl)c(Cl)c1)NC1CCC(CN2CCC(c3c[nH]c4cc(C(F)(F)F)ccc34)CC2)CC1 (stereo unspecified) | 0.278 µM and 0.897 µM

Same assay, conditions: Plasmodium falciparum, 3D7

Compound | XC50 [µM]
CN(C)CCN1CCN(Cc2ccc(-c3cccc(-c4nc5ccccc5[nH]4)c3)cc2)CC1 | 0.199
O=C(c1ccc(-c2ccc(Cl)cc2)o1)N1CCc2cc3nccc(N4CCN5CCC[C@H]5C4)c3cc21 | 0.17
Cc1nc2nc(N)nc(N)c2c(C)c1Cc1ccc(C#N)cc1 | 0.542
COc1cc(C(=O)NC2CCN(Cc3ccccc3)CC2)ccc1-c1nc2c(Cl)cc(C(F)(F)F)cc2[nH]1 | 0.67
N=C(N)Nc1nc(-c2cccc(NC(=O)NCCc3c[nH]c4ccc(OCc5ccccc5)cc34)c2)cs1 | 0.805
CCOc1ccccc1C(=O)N1CCc2cc3nccc(N4CCN5CCC[C@H]5C4)c3cc21 | 0.753
CCC[C@@H]([C@@H](CC(C)C)C(=O)N[C@@H](CCCCNC(=O)c1ccccn1)C(=O)Nc1nccs1)N(O)C=O | 0.0466
COc1ccc(OCCCN2CCN(CC(c3ccc(F)cc3)N3CCN(C(C)C)CC3)CC2)c2ccccc12 (stereo unspecified) | 0.65
O=C(Nc1cccc(C(F)(F)F)c1)Nc1nc2ccc([N+](=O)[O-])cc2s1 | 0.687
COc1ccc(CNC(=O)c2cnc3cc(-c4c(C)noc4C)ccc3c2Nc2ccccc2C(C)(C)C)cc1 | 1.3
O=C(NC1CCCCN(Cc2ccc3c(c2)OCCO3)C1)c1cc(-c2ccccc2F)cs1 (stereo unspecified) | 1.05
COc1ccccc1N1CCN(CCCCNC(=O)c2ccc(NC(=O)c3cc4ccccc4o3)cc2)CC1 | 0.978
Cc1cc(NCCC(=O)NCCOc2ccccc2)nc(NCCc2ccccc2)n1 | 1.23
O=C(Cc1ccc(NC(=O)c2ccc(O)c(-c3ccc(Cl)c(Cl)c3)c2)cc1)NCCN1CCCCC1 | 0.841
O=S(=O)(NCCN1CCCC1)c1ccc(-c2ccc(CNCc3ccccc3)cc2)cc1F | 1.29
CCOC(=O)c1c(C)n(-c2ccccc2)c2ccc(OC(=O)COc3ccc(Cl)cc3Cl)cc12 | 0.429
CN1CCC(N2CCN(Cc3cccc(-c4cccc(-c5nc6ccccc6[nH]5)c4)c3)CC2)CC1 | 0.194
Cc1cc(CN2CC[C@H](NC(=O)c3ccc(Cl)c(Cl)c3)C2)ccc1OCCCN(C)C | 0.842

Compound | XC50 [µM]
Cc1cc(C2CCN(CCCCNC(=O)c3ccc(-c4ccc(C#N)cc4)cc3)CC2)c(C)cc1OCCO | 0.808
CN(C)/C(=N/C(=N)NCc1ccc(Cl)c(Cl)c1)NCCCCCCN/C(=N\C(=N)NCc1ccc(Cl)c(Cl)c1)N(C)C | 0.304
CCCC(=O)c1cnc2c(Oc3cc(Cl)ncn3)cccc2c1Nc1ccccc1C | 0.336
O=C(C=Cc1ccc(F)cc1)N1CCN(S(=O)(=O)c2ccc(Cl)cc2)CC1 | 0.634
O=C(Nc1ccc(OC2CCN(Cc3ccc(F)cc3)CC2)c(Cl)c1)c1ccsc1 | 0.717
CCOc1ccc(NC(=O)c2ccc(NCCCN3CC(C)CC(C)C3)c([N+](=O)[O-])c2)cc1 (stereo unspecified) | 0.705
O=C(NCc1cccc(C(F)(F)F)c1)c1ccc(CNC(=O)c2ccc(O)c(-c3ccc(Cl)c(Cl)c3)c2)cc1 | 0.843
Cn1nc(C(F)(F)F)cc1-c1ccc(C(=O)Nc2ccc3c(c2)CNCC3(C)C)s1 | 1.01
Cc1sc(N2CCCCC2)nc1C(=O)Nc1ccc(F)cc1C(F)(F)F | 1.15
CCN(CC)CCN(Cc1ccc(-c2ccc(C(F)(F)F)cc2)cc1)C(=O)Cn1cc(CCCCc2cccc(F)c2F)c(=O)c2ccccc21 | 0.883
COc1ccc2nccc(N3CCN(CCNCc4ccc5c(n4)NC(=O)CS5)CC3)c2c1 | 0.95
COc1cccc(Nc2nc(N)c3ccccc3n2)c1 | 0.934
Cc1ccccc1C1CCN(C2CCC(NC(=O)c3ccc(-c4ccccc4)s3)CC2)CC1 (stereo unspecified) | 0.661
O=C(/C=C/c1ccc(Cl)c(Cl)c1)NCCCCCN1CCC(c2n[nH]c(-c3ccccc3)c2Br)CC1 | 0.723
CCC(=O)Nc1cc(=O)[nH]c2nc(-c3ccc(Cl)cc3)nn12 | 0.57
CC(C)CCN1CCCN(Cc2cccc(NC(=O)c3ccc(-c4ccccc4)cc3)c2)CC1 | 0.888
CC(C)COc1ccc(Cl)cc1Cc1ccc(-c2nc3cc(N4CCN(C)CC4)ccc3[nH]2)o1 | 0.945
